In PubChem BioAssay (NCI):
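Following 48 hours of exposure in 96-well plates, responses at five concentrations were used to interpolate endpoints linearly. TGI: total growth inhibition.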

Assays:
Experiment in all cases: NCI anticancer screen, dose series, 48 h
NCI-H23 lung = tested on: NCI-H23 lung
OVCAR-3 ovarian = tested on: OVCAR-3 ovarian
NCI/ADR-RES ovarian = tested on: NCI/ADR-RES ovarian
UACC-62 melanoma = tested on: UACC-62 melanoma
CAKI-1 renal = tested on: CAKI-1 renal
BT-549 breast = tested on: BT-549 breast
M14 melanoma = tested on: M14 melanoma
MDA-MB-231 breast = tested on: MDA-MB-231 breast
HCC-2998 colon = tested on: HCC-2998 colon
TK-10 renal = tested on: TK-10 renal
NCI-H522 lung = tested on: NCI-H522 lung
OVCAR-8 ovarian = tested on: OVCAR-8 ovarian
K-562 leukemia = tested on: K-562 leukemia
SW-620 colon = tested on: SW-620 colon
SF-295 CNS = tested on: SF-295 CNS
SK-MEL-5 melanoma = tested on: SK-MEL-5 melanoma
U251 CNS = tested on: U251 CNS
T-47D breast = tested on: T-47D breast
SNB-19 CNS = tested on: SNB-19 CNS
IGROV1 ovarian = tested on: IGROV1 ovarian
HOP-62 NSCLC = tested on: HOP-62 NSCLC
MALME-3M melanoma = tested on: MALME-3M melanoma
OVCAR-4 ovarian = tested on: OVCAR-4 ovarian
SF-268 CNS = tested on: SF-268 CNS
UO-31 renal = tested on: UO-31 renal
DU-145 prostate = tested on: DU-145 prostate
SK-OV-3 ovarian = tested on: SK-OV-3 ovarian
A549 NSCLC = tested on: A549 NSCLC
SR leukemia = tested on: SR leukemia
SN12C renal = tested on: SN12C renal
EKVX NSCLC = tested on: EKVX NSCLC
SNB-75 CNS = tested on: SNB-75 CNS
CCRF-CEM leukemia = tested on: CCRF-CEM leukemia
MDA-N = tested on: MDA-N
MCF7 breast = tested on: MCF7 breast
SK-MEL-28 melanoma = tested on: SK-MEL-28 melanoma
KM12 colon = tested on: KM12 colon
HOP-92 NSCLC = tested on: HOP-92 NSCLC
SF-539 CNS = tested on: SF-539 CNS
HS 578T breast = tested on: HS 578T breast
COLO 205 colon = tested on: COLO 205 colon
OVCAR-5 ovarian = tested on: OVCAR-5 ovarian
HT29 colon = tested on: HT29 colon
HCT-116 colon = tested on: HCT-116 colon
ACHN renal = tested on: ACHN renal
RPMI-8226 leukemia = tested on: RPMI-8226 leukemia
MDA-MB-435 = tested on: MDA-MB-435
786-0 renal = tested on: 786-0 renal
PC-3 prostate = tested on: PC-3 prostate
UACC-257 melanoma = tested on: UACC-257 melanoma
LOX IMVI melanoma = tested on: LOX IMVI melanoma
SK-MEL-2 melanoma = tested on: SK-MEL-2 melanoma
HL-60(TB) leukemia = tested on: HL-60(TB) leukemia
RXF 393 renal = tested on: RXF 393 renal
MOLT-4 leukemia = tested on: MOLT-4 leukemia
NCI-H226 lung = tested on: NCI-H226 lung
HCT-15 colon = tested on: HCT-15 colon
NCI-H460 lung = tested on: NCI-H460 lung

`CCOC(=O)CC1C(O)C(=O)N(C)C1c1ccccc1` (stereo not drawn) was tested, and the TGI (NCI-H23 lung) was > 100 µM, the TGI (OVCAR-3 ovarian) was > 100 µM and the TGI (NCI/ADR-RES ovarian) was > 100 µM. The TGI (UACC-62 melanoma) was > 100 µM, the TGI (CAKI-1 renal) was > 100 µM and the TGI (BT-549 breast) was > 100 µM. The TGI (M14 melanoma) was > 100 µM, the TGI (MDA-MB-231 breast) was > 100 µM and the TGI (HCC-2998 colon) was > 100 µM. The TGI (TK-10 renal) was > 100 µM, the TGI (NCI-H522 lung) was > 100 µM and the TGI (OVCAR-8 ovarian) was > 100 µM. The TGI (K-562 leukemia) was > 100 µM, the TGI (SW-620 colon) was > 100 µM and the TGI (SF-295 CNS) was > 100 µM. The TGI (SK-MEL-5 melanoma) was > 100 µM, the TGI (U251 CNS) was > 100 µM and the TGI (T-47D breast) was > 100 µM. For the same molecule, the TGI (SNB-19 CNS) was > 100 µM, the TGI (IGROV1 ovarian) was > 100 µM and the TGI (HOP-62 NSCLC) was > 100 µM. The TGI (MALME-3M melanoma) was > 100 µM, the TGI (OVCAR-4 ovarian) was > 100 µM and the TGI (SF-268 CNS) was > 100 µM. The TGI (UO-31 renal) was > 100 µM, the TGI (DU-145 prostate) was > 100 µM and the TGI (SK-OV-3 ovarian) was > 100 µM. The TGI (A549 NSCLC) was > 100 µM, the TGI (SR leukemia) was > 100 µM and the TGI (SN12C renal) was > 100 µM. The TGI (EKVX NSCLC) was > 100 µM, the TGI (SNB-75 CNS) was > 100 µM and the TGI (CCRF-CEM leukemia) was > 100 µM. The TGI (MDA-N) was > 100 µM, the TGI (MCF7 breast) was > 100 µM and the TGI (SK-MEL-28 melanoma) was > 100 µM. The TGI (KM12 colon) was > 100 µM, the TGI (HOP-92 NSCLC) was > 100 µM and the TGI (SF-539 CNS) was > 100 µM. For the same molecule, the TGI (HS 578T breast) was > 100 µM, the TGI (COLO 205 colon) was > 100 µM and the TGI (OVCAR-5 ovarian) was > 100 µM. For the same molecule, the TGI (HT29 colon) was > 100 µM, the TGI (HCT-116 colon) was > 100 µM and the TGI (ACHN renal) was > 100 µM. The TGI (RPMI-8226 leukemia) was > 100 µM, the TGI (MDA-MB-435) was > 100 µM and the TGI (786-0 renal) was > 100 µM. The TGI (PC-3 prostate) was > 100 µM, the TGI (UACC-257 melanoma) was > 100 µM and the TGI (LOX IMVI melanoma) was > 100 µM. The TGI (SK-MEL-2 melanoma) was > 100 µM, the TGI (HL-60(TB) leukemia) was > 100 µM and the TGI (RXF 393 renal) was > 100 µM. For the same molecule, the TGI (MOLT-4 leukemia) was > 100 µM, the TGI (NCI-H226 lung) was > 100 µM and the TGI (HCT-15 colon) was > 100 µM.
`CCOP(=O)(OCC)C(C)(C)OC(=O)NC(F)(F)F` was tested, and the TGI (NCI-H23 lung) was > 100 µM, the TGI (OVCAR-3 ovarian) was > 100 µM and the TGI (NCI/ADR-RES ovarian) was > 100 µM. For the same molecule, the TGI (UACC-62 melanoma) was > 100 µM, the TGI (CAKI-1 renal) was > 100 µM and the TGI (BT-549 breast) was > 100 µM. For the same molecule, the TGI (M14 melanoma) was > 100 µM, the TGI (MDA-MB-231 breast) was > 100 µM and the TGI (HCC-2998 colon) was > 100 µM. For the same molecule, the TGI (TK-10 renal) was > 100 µM, the TGI (OVCAR-8 ovarian) was > 100 µM and the TGI (K-562 leukemia) was > 100 µM. The TGI (SW-620 colon) was > 100 µM, the TGI (SF-295 CNS) was > 100 µM and the TGI (SK-MEL-5 melanoma) was > 100 µM. The TGI (U251 CNS) was > 100 µM, the TGI (T-47D breast) was > 100 µM and the TGI (SNB-19 CNS) was > 100 µM. The TGI (IGROV1 ovarian) was > 100 µM, the TGI (HOP-62 NSCLC) was > 100 µM and the TGI (MALME-3M melanoma) was > 100 µM. For the same molecule, the TGI (OVCAR-4 ovarian) was > 100 µM, the TGI (SF-268 CNS) was > 100 µM and the TGI (UO-31 renal) was > 100 µM. The TGI (DU-145 prostate) was > 100 µM, the TGI (SK-OV-3 ovarian) was > 100 µM and the TGI (A549 NSCLC) was > 100 µM. For the same molecule, the TGI (SR leukemia) was > 100 µM, the TGI (SN12C renal) was > 100 µM and the TGI (EKVX NSCLC) was > 100 µM. For the same molecule, the TGI (SNB-75 CNS) was > 100 µM, the TGI (CCRF-CEM leukemia) was > 100 µM and the TGI (MDA-N) was > 100 µM. For the same molecule, the TGI (MCF7 breast) was > 100 µM, the TGI (SK-MEL-28 melanoma) was > 100 µM and the TGI (KM12 colon) was > 100 µM. For the same molecule, the TGI (SF-539 CNS) was > 100 µM, the TGI (NCI-H460 lung) was > 100 µM and the TGI (HS 578T breast) was > 100 µM. The TGI (COLO 205 colon) was > 100 µM, the TGI (OVCAR-5 ovarian) was > 100 µM and the TGI (HT29 colon) was > 100 µM. For the same molecule, the TGI (HCT-116 colon) was > 100 µM, the TGI (ACHN renal) was > 100 µM and the TGI (RPMI-8226 leukemia) was > 100 µM. For the same molecule, the TGI (MDA-MB-435) was > 100 µM, the TGI (786-0 renal) was > 100 µM and the TGI (PC-3 prostate) was > 100 µM. For the same molecule, the TGI (UACC-257 melanoma) was > 100 µM, the TGI (LOX IMVI melanoma) was > 100 µM and the TGI (SK-MEL-2 melanoma) was > 100 µM. The TGI (HL-60(TB) leukemia) was > 100 µM, the TGI (RXF 393 renal) was > 100 µM and the TGI (MOLT-4 leukemia) was > 100 µM. The TGI (NCI-H226 lung) was 99.6 µM and the TGI (HCT-15 colon) was > 100 µM.
